A short description of series [1]: Solubility in fasted state-simulated intestinal fluid at pH 6.5. Type of series: physicochemical. As to conditions: simulated gi fluid.
Series [2] can be described thus: Oral bioavailability in cynomolgus monkey at 5 mg/kg. Type of series: ADME, organism-based, Macaca fascicularis. The note with it: in vivo.
Series [3] has as its target T1, Peroxisome proliferator-activated receptor gamma (Homo sapiens, UniProt P37231).
T1 sequence (P37231 whole entry): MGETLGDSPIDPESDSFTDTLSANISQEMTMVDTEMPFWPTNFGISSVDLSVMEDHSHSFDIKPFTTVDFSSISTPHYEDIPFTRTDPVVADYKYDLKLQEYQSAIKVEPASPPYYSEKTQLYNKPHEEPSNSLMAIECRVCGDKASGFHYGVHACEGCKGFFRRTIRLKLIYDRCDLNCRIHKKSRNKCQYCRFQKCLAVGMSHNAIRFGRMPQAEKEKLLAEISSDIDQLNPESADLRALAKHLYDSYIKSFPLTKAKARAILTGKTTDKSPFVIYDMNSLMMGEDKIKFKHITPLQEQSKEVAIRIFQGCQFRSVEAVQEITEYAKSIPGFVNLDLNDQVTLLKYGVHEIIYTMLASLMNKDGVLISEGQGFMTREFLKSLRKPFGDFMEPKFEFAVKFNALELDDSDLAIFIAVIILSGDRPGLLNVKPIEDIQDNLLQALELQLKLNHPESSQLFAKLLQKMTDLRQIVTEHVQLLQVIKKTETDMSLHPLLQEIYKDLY
The series is described as follows: Agonist activity at PPARgamma by SPA assay. Type of series: functional.

Series [4] in a line: Volume of distribution at steady state in iv dosed cynomolgus monkey. As to conditions: in vivo, read-out: Vdss. Type of series: ADME, organism-based, Macaca fascicularis.
For series [5], the system named is Rattus norvegicus. The series is described as follows: Reduction of serum direct bilirubin level in alpha-naphthyl-isothiocyanate-induced rat acute cholestasis model at 100 to 300 mg/kg, po bid for 4 days dosed before 2 days induction by alpha-naphthyl-isothiocyanate. In kind it is functional, organism-based.
A further series has as its target Cytochrome P450 3A4 (Homo sapiens, UniProt P08684). The series is described as follows: Inhibition of CYP3A4 in pooled human liver microsome using midazolam substrate. Type of series: ADME, microsomes.
The test system of series [6] is Rattus norvegicus. In words: Reduction of serum aspartate aminotransferase level in alpha-naphthyl-isothiocyanate-induced rat acute cholestasis model at 100 to 300 mg/kg, po bid for 4 days dosed before 2 days induction by alpha-naphthyl-isothiocyanate. In kind it is functional, organism-based.
The target in series [7] is T2, Nuclear receptor ROR-alpha (Homo sapiens, UniProt P35398).
T2 sequence (P35398 whole entry): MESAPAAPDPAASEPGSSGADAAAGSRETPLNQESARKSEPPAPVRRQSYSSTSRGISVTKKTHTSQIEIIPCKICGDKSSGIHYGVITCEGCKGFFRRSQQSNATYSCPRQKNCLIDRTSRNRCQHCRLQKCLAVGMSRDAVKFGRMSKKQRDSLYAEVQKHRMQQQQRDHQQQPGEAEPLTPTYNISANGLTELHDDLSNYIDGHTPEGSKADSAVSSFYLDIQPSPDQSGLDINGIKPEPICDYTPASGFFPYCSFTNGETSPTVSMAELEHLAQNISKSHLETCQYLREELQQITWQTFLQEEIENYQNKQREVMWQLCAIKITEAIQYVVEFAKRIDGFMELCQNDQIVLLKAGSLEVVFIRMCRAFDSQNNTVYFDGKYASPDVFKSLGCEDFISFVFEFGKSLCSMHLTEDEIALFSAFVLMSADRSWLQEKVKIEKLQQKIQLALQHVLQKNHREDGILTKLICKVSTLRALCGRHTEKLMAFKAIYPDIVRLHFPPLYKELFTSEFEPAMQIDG
In words: Agonist activity at RORalpha assessed as receptor-coactivator peptide interaction by FRET assay. In kind it is functional.

In another series the target is T3, Bile acid receptor (Homo sapiens, UniProt Q96RI1).
T3 sequence (Q96RI1 whole entry): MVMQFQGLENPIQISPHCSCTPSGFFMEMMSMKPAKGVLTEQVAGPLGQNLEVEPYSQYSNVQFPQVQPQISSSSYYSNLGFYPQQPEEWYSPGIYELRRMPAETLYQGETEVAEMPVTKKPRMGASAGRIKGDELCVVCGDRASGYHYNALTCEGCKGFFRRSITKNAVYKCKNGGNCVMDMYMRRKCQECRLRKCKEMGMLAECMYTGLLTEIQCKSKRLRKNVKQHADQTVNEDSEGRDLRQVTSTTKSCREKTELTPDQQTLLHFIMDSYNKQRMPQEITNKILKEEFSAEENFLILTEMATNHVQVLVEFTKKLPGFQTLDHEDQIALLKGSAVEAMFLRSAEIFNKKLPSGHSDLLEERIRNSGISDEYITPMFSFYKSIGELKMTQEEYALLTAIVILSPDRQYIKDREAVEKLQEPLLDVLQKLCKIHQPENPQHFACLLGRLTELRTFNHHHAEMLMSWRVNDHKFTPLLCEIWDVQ
The series is described as follows: Agonist activity at FXR expressed in african green monkey CV1 cells by luciferase reporter transient transfection assay. In kind it is functional, cell-based, CV-1. A general note: A reporter such as luciferase makes a cellular process visible.

The nature of series [8]: Half life in iv dosed mouse. In kind it is ADME, organism-based. As to conditions: in vivo.
The next series has as its target T4, Cytochrome P450 1A2 (Homo sapiens, UniProt P05177).
T4 sequence (P05177 whole entry): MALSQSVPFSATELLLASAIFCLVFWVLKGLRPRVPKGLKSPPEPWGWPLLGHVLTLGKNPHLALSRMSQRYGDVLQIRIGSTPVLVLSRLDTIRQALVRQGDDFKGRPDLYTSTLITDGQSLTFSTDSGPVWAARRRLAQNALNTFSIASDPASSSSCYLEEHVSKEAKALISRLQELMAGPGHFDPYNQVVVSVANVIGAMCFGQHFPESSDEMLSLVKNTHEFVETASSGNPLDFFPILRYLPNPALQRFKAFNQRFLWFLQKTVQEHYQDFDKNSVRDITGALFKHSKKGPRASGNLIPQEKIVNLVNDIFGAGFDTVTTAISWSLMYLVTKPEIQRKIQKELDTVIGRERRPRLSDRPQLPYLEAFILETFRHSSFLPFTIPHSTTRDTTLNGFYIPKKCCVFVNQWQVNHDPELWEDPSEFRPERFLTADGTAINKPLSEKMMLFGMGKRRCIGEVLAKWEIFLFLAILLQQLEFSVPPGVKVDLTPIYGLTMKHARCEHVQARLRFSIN
In words: Inhibition of CYP1A2 in pooled human liver microsome. In kind it is ADME, microsomes. In general terms: Microsomes from liver hold many membrane-bound enzymes, among them those of drug oxidation.

The nature of series [9]: Half life in iv dosed cynomolgus monkey. As to conditions: in vivo. In kind it is ADME, organism-based, Macaca fascicularis.
The target of series [10] is T5, Bile acid receptor (Homo sapiens) (UniProt Q96RI1).
T5 sequence (whole entry): T3 sequence (Q96RI1 whole entry)
The series is described as follows: Agonist activity at FXR expressed in african green monkey CV1 cells by luciferase reporter transient transfection assay relative to GW-4064. Type of series: functional, cell-based. The note with it: CV-1.

The target in another series is Cytochrome P450 2C9 (Homo sapiens, UniProt P11712). The series is described as follows: Inhibition of CYP2C9 in pooled human liver microsome. Type of series: ADME.
Chain of Cytochrome P450 2C9 (P11712 whole entry): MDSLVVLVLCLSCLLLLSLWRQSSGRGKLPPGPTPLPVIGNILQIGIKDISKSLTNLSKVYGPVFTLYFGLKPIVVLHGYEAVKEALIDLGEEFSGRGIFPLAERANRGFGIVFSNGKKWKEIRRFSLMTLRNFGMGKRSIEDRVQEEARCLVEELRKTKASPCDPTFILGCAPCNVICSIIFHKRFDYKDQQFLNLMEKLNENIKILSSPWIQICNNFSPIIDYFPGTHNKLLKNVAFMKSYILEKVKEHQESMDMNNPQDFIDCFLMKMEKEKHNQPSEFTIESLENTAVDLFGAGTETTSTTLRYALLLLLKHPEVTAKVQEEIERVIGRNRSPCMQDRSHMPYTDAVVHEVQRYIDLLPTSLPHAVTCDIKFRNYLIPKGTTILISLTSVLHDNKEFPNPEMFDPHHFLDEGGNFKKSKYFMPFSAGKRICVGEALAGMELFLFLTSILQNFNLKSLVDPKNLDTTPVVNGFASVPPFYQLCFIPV
A short description of series [11]: Clearance in iv dosed mouse. In kind it is ADME, organism-based. As to conditions: in vivo.
The nature of series [12]: Volume of distribution at steady state in iv dosed mouse. In kind it is ADME, organism-based. As to conditions: in vivo, read-out: Vdss.

Converted amounts (≈) assume the structure as drawn. The source made the active and inactive calls. The calls are words filed in the database; no cut-off is given here.

Chain of Cytochrome P450 3A4 (P08684 whole entry): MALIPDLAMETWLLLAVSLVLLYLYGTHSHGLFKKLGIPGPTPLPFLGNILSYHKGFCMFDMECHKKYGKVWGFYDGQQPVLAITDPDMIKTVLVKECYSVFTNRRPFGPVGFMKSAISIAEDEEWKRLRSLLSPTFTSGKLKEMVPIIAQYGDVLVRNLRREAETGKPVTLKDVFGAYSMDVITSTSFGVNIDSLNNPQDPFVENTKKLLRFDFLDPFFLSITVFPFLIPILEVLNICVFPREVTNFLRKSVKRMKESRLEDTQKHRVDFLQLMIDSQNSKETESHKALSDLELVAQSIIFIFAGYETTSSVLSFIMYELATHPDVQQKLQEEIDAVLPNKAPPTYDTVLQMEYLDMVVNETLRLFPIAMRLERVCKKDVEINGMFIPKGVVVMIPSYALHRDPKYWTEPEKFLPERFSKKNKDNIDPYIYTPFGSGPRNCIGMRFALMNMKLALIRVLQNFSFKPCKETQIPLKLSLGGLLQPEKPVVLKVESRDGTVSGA

The solubility is the concentration that dissolves in the medium under given conditions. What is called bioavailability is dose-corrected exposure relative to a reference, in per cent. What is called IC50 is the point on the concentration scale where inhibition reaches its midpoint. A word on the EC50: it is the concentration giving half of the maximal effect. What is called half-life is the time in which the quantity being followed falls by half. What is called clearance is the rate of elimination divided by the concentration. `CC(C)c1onc(-c2c(Cl)cccc2Cl)c1COc1ccc(-c2ccc3c(C(=O)O)cccc3c2)cc1` displayed a solubility in series [1] of 1 µg/mL (≈ 1.88 µM). Also, the bioavailability in series [2] came out at 34%. For the same molecule, the XC50 in [3] and in series [7] was greater than 10 µM each time. In addition, the Vd in series [4] is 0.35 L/kg; in series [12] it was 0.4 L/kg. Besides, the result in the series with Rattus norvegicus [5] and in the series on Rattus norvegicus [6] was Active. For the same molecule, the IC50 on Cytochrome P450 3A4 was 7.2 µM; at Cytochrome P450 1A2 it was 23 µM; against Cytochrome P450 2C9 it was 17 µM. Further, at Bile acid receptor, the EC50 was 0.068 µM. Also, the half-life in series [8] was found to be 1.6 h; in [9], 1.5 h. In [10], this molecule had a %max of 104%. In addition, in series [11], the clearance was determined as 7 mL/min/kg.
